Data: the supplement of paper PMC10307832

Key:
Assay in all cases: relative viability (nuclei count vs DMSO), 5 days (fraction); higher = more cells survive
[1] = compound: CC1=CC(=CC=C1)NC2=NC(=CS2)C3=CC=NC=C3
Procedure, shortened: (§1)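 Lung cancer cell lines in 1536-well plates were exposed by pinning to five library-drug doses (not always all listed) √10 apart, following an overnight hold at 37 °C. MetaXpress counted Hoechst-stained nuclei from 4× images taken after 5 days without medium change. Viability is the median ratio of treated-well to vehicle-well nuclei across plates. Plates required control CV below 25% and at least one doubling.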

[2] = compound: Cc1ccc(NC(=O)c2ccc(CN3CCN(C)CC3)cc2)cc1Nc1nc(-c2cccnc2)cs1 [Masitinib]
Procedure, shortened: as §1

[3] = compound: CC1=CC(=CC=C1)NC2=NC(=CS2)C3=CC=NC=C3 + Nc1ncn([C@H]2C[C@H](O)[C@@H](CO)O2)c(=O)n1 [Decitabine] (partner 2 µM)
Procedure, shortened: (§2)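 Five library-drug doses in √10 steps were combined with a fixed anchor-drug dose, or a single drug was given alone, by pin tool to lung cancer cell lines in 1536-well plates the day after seeding. Nuclei were stained and counted after 5 days. Relative viability is the nuclei count in treated wells over that in vehicle wells, taken as the median of duplicate plates.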

[4] = compound: Cc1ccc(NC(=O)c2ccc(CN3CCN(C)CC3)cc2)cc1Nc1nc(-c2cccnc2)cs1 [Masitinib] + C[C@]1(O)C[C@@H](c2nc(-c3ccc4ccc(-c5ccccc5)nc4c3)c3c(N)nccn32)C1 [Linsitinib] (partner 1 µM)
Procedure, shortened: as §2

Work on UMC-11 yielded a relative viability ([1]; 0.08 µM) of 0.872, a relative viability ([1]; 0.253 µM) of 0.927 and a relative viability ([1]; 0.8 µM) of 0.927. It also gave a relative viability ([1]; 2.53 µM) of 0.93, a relative viability ([1]; 8 µM) of 1.03 and a relative viability ([2]; 0.01 µM) of 0.926. The relative viability ([2]; 0.03162 µM) was 0.969, the relative viability ([2]; 0.1 µM) was 1.09 and the relative viability ([2]; 0.3162 µM) was 0.961. The relative viability ([2]; 1 µM) was 1.06, the relative viability ([3]; first compound 0.08 µM) was 0.56 and the relative viability ([3]; first compound 0.253 µM) was 0.552. It also gave a relative viability ([3]; first compound 0.8 µM) of 0.572, a relative viability ([3]; first compound 2.53 µM) of 0.626 and a relative viability ([3]; first compound 8 µM) of 0.714. The relative viability ([4]; first compound 0.01 µM) was 0.982, the relative viability ([4]; first compound 0.03162 µM) was 1.12 and the relative viability ([4]; first compound 0.1 µM) was 1.27. The relative viability ([4]; first compound 0.3162 µM) was 1.07 and the relative viability ([4]; first compound 1 µM) was 1.25.
